Here are results for 15 compounds from EPA's ToxValDB 9.5.

For data set [1], the system named is Rattus norvegicus. The following applies: oral.
Data set [2] deals with Rattus norvegicus. The conditions noted are these: repeat dose other; oral.
In data set [3] the test system is Rattus norvegicus. The following applies: for LOAEL: subchronic, Sprague-Dawley.
The test system of data set [4] is Mus musculus. The following applies: reproduction developmental, oral, generation: P0.
Data set [5] relates to Rattus norvegicus. The following applies: developmental, oral, gavage, generation: F1.
The subject of data set [6] is Mus musculus. The following applies: M/F; for NOAEL: developmental.
The test system of data set [7] is Rattus norvegicus. The following applies: chronic; duration: 2 years; oral; diet; Liver: Increased weight.
Data set [8] deals with Mus musculus.
Data set [9] deals with Rattus norvegicus. The following applies: oral, M/F.
In data set [10] the test system is Rattus norvegicus. The conditions noted are these: oral; for LOAEL / NOAEL: gavage, M/F, Crl:CD(SD), During lactation periods f1 & f2: increased pup mortality, decreased pup viability & bodyweight, decreased lactation index, increased ….
Setting [11] is: subchronic, liver and kidney pathology.
[12] abbreviates: subchronic, oral, M/F, hepatotoxicity.
The mark [13] stands for this setting: developmental, increased retinal folds in weanlings, reduced viability and lactation indices, reduced pup body weight, increased dead pups at birth.
The mark [14] stands for this setting: developmental, inhalation, M/F, delayed fetal ossification.

`O=C1[O][Sb-]23[O]C(=O)C([O]2)C2[O][Sb-]4([O]C(=O)C([O]4)C1[O]3)[O]C2=O.[K+].[K+]` displayed an LOAEL in the data set with Rattus norvegicus [1] (chronic, duration: 2 years, drinking water, M/F, Long-Evans, Whole Body Effects) of 0.35 mg/kg-day.

In the data set on Rattus norvegicus [2], `Clc1cc2c(oc3cc(Cl)c(Cl)c(Cl)c32)c(Cl)c1Cl` [1,2,3,6,7,8-Hexachlorodibenzofuran] came in with an LOAEL of 0.0016 mg/kg-day and an NOAEL of 0.00016 mg/kg-day.

On to `CC(O)CO` (stereo not given) [1,2-Propylene glycol], for which the LOAEL came out at 5200 mg/kg-day with Rattus norvegicus [1] (subchronic, duration: 5 weeks, drinking water, M, Wistar, Hematologic) and 159 mg/m3 in the data set on Rattus norvegicus [3] (duration: 13 weeks, inhalation, nose only, M/F, respiratory).

Consider `Brc1c(Br)c(Br)c(Oc2c(Br)c(Br)c(Br)c(Br)c2Br)c(Br)c1Br` [2,2',3,3',4,4',5,5',6,6'-Decabromodiphenyl ether], for which the LOEL in the data set with Mus musculus [4] (M/F, C57BL/6, P0: Operant test (fixed interval schedule, index of curvature, last block) + P0: Operant test (fixed interval schedule, index of curvature, …) was determined as 6 mg/kg-day; with Mus musculus [4] (M/F, C57BL/6, P0: Operant test (fixed interval schedule, overall response rate, first block) + P0: Operant test (fixed interval schedule, overall response…) it was 20 mg/kg-day; in the data set with Mus musculus [4] (M, Apoe3, P0: Morris water maze (swim distance in target quadrant)), 10 mg/kg-day; in the data set on Mus musculus [4] (M, Swiss Albino, P0: Morris water maze (latency, last trial) + P0: Morris water maze (latency, significant trial) + P0: Morris water maze (time spent in …), 20 mg/kg-day; in the data set with Rattus norvegicus [5] (M/F, Crl:CD(SD), F1: Water T maze (learning error)) it was 1000 mg/kg-day; with Rattus norvegicus [5] (M, Sprague-Dawley, F1: Morris water maze (latency, last trial) + F1: Morris water maze (latency, significant trial)) it was 30 mg/kg-day. Further, the NOAEL in the data set on Mus musculus [6] (duration: 1 days, oral, gavage, NMRI) was 1.34 mg/kg-day; in the data set on Mus musculus [8] (developmental, oral, gavage, neurobehavioral effects) it was 2.22 mg/kg-day. In addition, the lowest observed adverse effect level (LOAEL) was found to be 0.05 mg/kg-day in the data set on Rattus norvegicus [3] (duration: 8 weeks, oral, gavage, M, endocrine) and 20.1 mg/kg-day in the data set on Mus musculus [8] (developmental, oral, gavage, M, neurobehavioral effects). In addition, the NOEL in the data set on Rattus norvegicus [7] was 1 mg/kg-day.

Take `Oc1cc(Cl)c(Cl)cc1Cl` [2,4,5-Trichlorophenol]: the NOAEL in the data set with Rattus norvegicus [1] (chronic, duration: 98 days, diet, M/F, Wistar, Hepatic, Urinary) amounted to 100 mg/kg-day; in the data set with Rattus norvegicus [3] (chronic, duration: 98 days, oral, diet, M/F, Wistar, hepatic, renal) it was 100 mg/kg-day. Moreover, the LOAEL with Rattus norvegicus [9] (setting [11]) is 300 mg/kg-day. Further, the NOEL in the data set on Rattus norvegicus [9] (setting [11]) is 100 mg/kg-day.

In the data set with Rattus norvegicus [1] (chronic, duration: 18 weeks, diet, M/F, FDRL, Whole Body Effects), `OCCCl` [2-Chloroethanol] displayed an NOAEL of 45 mg/kg-day.

Compound `Cc1ccccc1N` [2-Methylaniline] gave an LOAEL in the data set on Rattus norvegicus [1] (subchronic, duration: 13 weeks, diet, M, Fischer 344) of 301 mg/kg-day.

Regarding `OCC(O)CCl` (stereo not given) [3-Chloro-1,2-propanediol], the LOEL in the data set on Rattus norvegicus [10] (chronic, drinking water, Fischer 344, Kidney proximule tubule hyperplasia) came out at 1.1 mg/kg-day.

With `O=C(c1ccc(Cl)cc1)c1ccc(Cl)cc1` [4,4'-Dichlorobenzophenone], the NOAEL in the data set with Rattus norvegicus [1] (subchronic, duration: 90 days, diet, M, Wistar) was determined as 86 mg/kg-day.

As to `c1cc2c3c(cccc3c1)CC2` [Acenaphthene], the LOAEL in the data set on Mus musculus [6] (subchronic, duration: 90 days, oral, gavage, CD1, hepatic) was 175 mg/kg-day. In the data set on Mus musculus [8] (setting [12]), this compound registered an LOAEL of 350 mg/kg-day and an NOAEL of 175 mg/kg-day.

In the data set on Rattus norvegicus [10] (developmental), `CC[C@H](C)[C@H]1O[C@]2(C=C[C@@H]1C)C[C@@H]1C[C@@H](C/C=C(\C)[C@@H](O[C@H]3C[C@H](OC)[C@@H](O[C@H]4C[C@H](OC)[C@@H](O)[C@H](C)O4)[C@H](C)O3)[C@@H](C)/C=C/C=C3\CO[C@@H]4[C@H](O)C(C)=C[C@@H](C(=O)O1)[C@]34O)O2` [Avermectin B1a] came in with an LOAEL of 0.4 mg/kg-day and an NOAEL of 0.12 mg/kg-day. In the data set on Rattus norvegicus [10] (two-generation), this compound showed an LOAEL of 0.4 mg/kg-day and an NOAEL of 0.12 mg/kg-day. In the data set on Rattus norvegicus [9] (setting [13]), the LEL turned out to be 0.4 mg/kg-day and the NOEL was found to be 0.12 mg/kg-day.

Regarding `[Ba+2].[Cl-].[Cl-]` [Barium chloride], the NOAEL with Rattus norvegicus [2] turned out to be 5.1 mg/kg-day.

In turn, `ClCCOCOCCCl` [Bis(2-chloroethoxy)methane] had an NOAEL in the data set on Rattus norvegicus [1] (subchronic, duration: 90 days, gavage, M/F, Sprague-Dawley, hepatic) of 10 mg/kg-day.

Compound `Nc1cc(Cl)cc(C(=O)O)c1Cl` [Chloramben] showed an LEL in the data set on Mus musculus [8] (chronic, duration: 18 months, oral, diet, M/F, CD1, hepatocyte degeneration) of 15 mg/kg-day.

Turning to `CCCl` [Chloroethane], the NOAEL with Rattus norvegicus [1] (short-term, duration: 14 days, drinking water, F, Fischer 344, Whole Body Effects) amounted to 361 mg/kg-day; in the data set with Mus musculus [6] (duration: 9 days, inhalation, CF1), 3970 mg/m3; in the data set with Mus musculus [8] (setting [14]), 4000 mg/m3. For the same compound, the LOAEL in the data set with Mus musculus [8] (setting [14]) came out at 13000 mg/m3.
